From ChEMBL document CHEMBL6182832, “Design and synthesis of coumarin-based amphoteric antimicrobials with biofilm interference and immunoregulation effects” (RSC Med Chem, 2025)
In brackets after ≈: the same amount, converted by molar mass. Activity calls are given as the source filed them. No cut-off for these calls is given here.

Experiments:
[1] = test system: Escherichia coli; assay: Antibacterial activity against clinically isolated Escherichia coli ATCC25922 assessed as inhibition of bacterial growth measured after 16 to 24 hrs by broth microdilution method; type: functional; conditions: time 16-24 hrs, read-out: MIC100
[2] = test system: Escherichia coli; assay: Antibacterial activity against clinically isolated Escherichia coli DE17 assessed as inhibition of bacterial growth measured after 16 to 24 hrs by broth microdilution method; type: functional; conditions: time 16-24 hrs, read-out: MIC100
[3] = test system: Staphylococcus aureus; assay: Antibacterial activity against clinically isolated Staphylococcus aureus ATCC29213 assessed as inhibition of bacterial growth measured after 16 to 24 hrs by broth microdilution method; type: functional; conditions: time 16-24 hrs, read-out: MIC100
[4] = test system: Staphylococcus aureus; assay: Antibacterial activity against clinically isolated methicillin-resistant Staphylococcus aureus assessed as inhibition of bacterial growth measured after 16 to 24 hrs by broth microdilution method; type: functional; conditions: time 16-24 hrs, read-out: MIC100
[5] = test system: Bacillus subtilis; assay: Antibacterial activity against clinically isolated Bacillus subtilis ATCC6633 assessed as inhibition of bacterial growth measured after 16 to 24 hrs by broth microdilution method; type: functional; conditions: time 16-24 hrs, read-out: MIC100
[6] = test system: Listeria monocytogenes; assay: Antibacterial activity against clinically isolated Listeria monocytogenes CICC21662 assessed as inhibition of bacterial growth measured after 16 to 24 hrs by broth microdilution method; type: functional; conditions: time 16-24 hrs, read-out: MIC100
[7] = test system: Enterococcus faecalis; assay: Antibacterial activity against clinically isolated Enterococcus faecalis ATCC29212 assessed as inhibition of bacterial growth measured after 16 to 24 hrs by broth microdilution method; type: functional; conditions: time 16-24 hrs, read-out: MIC100
[8] = test system: Bacillus cereus; assay: Antibacterial activity against clinically isolated Bacillus cereus CMCC63303 assessed as inhibition of bacterial growth measured after 16 to 24 hrs by broth microdilution method; type: functional; conditions: time 16-24 hrs, read-out: MIC100
[9] = Hemolytic activity in rabbit erythrocytes assessed as hemolysis at 0.5 to 125 ug/ml; type: toxicity, cell-based, Oryctolagus cuniculus; conditions: erythrocyte, dose 0.5-125 µg/ml
[10] = test system: RAW264.7; assay: Anti-inflammatory activity against mouse RAW264.7 cells assessed as inhibition LPS-stimulated NO production 0.5 to 4 ug/ml measured after 24 hrs by NO assay kit; type: functional, cell-based; conditions: dose 0.5-4 µg/ml
[11] = test system: Staphylococcus aureus; assay: Anti-biofilm activity against clinically isolated Staphylococcus aureus ATCC29213 assessed inhibition of biofilm formation at 0.5 to 128 ug/ml measured after 12 to 16 hrs incubation by crystal violet staining based analysis; type: functional, organism-based; conditions: dose 0.5-128 µg/ml, time 12-16 hrs
[12] = test system: Escherichia coli; assay: Anti-biofilm activity against clinically isolated Escherichia coli DE17 assessed inhibition of biofilm formation at 0.5 to 128 ug/ml measured after 12 to 16 hrs incubation by crystal violet staining based analysis; type: functional, organism-based; conditions: dose 0.5-128 µg/ml, time 12-16 hrs
[13] = Hemolytic activity in rabbit erythrocytes assessed as hemolysis at >8 ug/ml; type: toxicity, cell-based, Oryctolagus cuniculus; conditions: erythrocyte, dose > 8 µg/ml
[14] = test system: Staphylococcus aureus; assay: Anti-biofilm activity against clinically isolated Staphylococcus aureus ATCC29213 assessed inhibition of biofilm formation at 2 ug/ml measured after 12 to 16 hrs incubation by crystal violet staining based analysis; type: functional; conditions: time 12-16 hrs
[15] = test system: Staphylococcus aureus; assay: Anti-biofilm activity against clinically isolated Staphylococcus aureus ATCC29213 assessed inhibition of biofilm formation at 4 ug/ml measured after 12 to 16 hrs incubation by crystal violet staining based analysis; type: functional; conditions: time 12-16 hrs
[16] = test system: Escherichia coli; assay: Anti-biofilm activity against clinically isolated Escherichia coli DE17 assessed inhibition of biofilm formation at 8 ug/ml measured after 12 to 16 hrs incubation by crystal violet staining based analysis; type: functional; conditions: time 12-16 hrs
[17] = test system: Escherichia coli; assay: Anti-biofilm activity against clinically isolated Escherichia coli DE17 assessed inhibition of biofilm formation at 16 ug/ml measured after 12 to 16 hrs incubation by crystal violet staining based analysis; type: functional; conditions: time 12-16 hrs
[18] = test system: Staphylococcus aureus; assay: Biofilm eradication activity against Staphylococcus aureus ATCC29213 assessed biofilm scavenging at 4 ug/ml measured after 12 to 16 hrs incubation by crystal violet staining based analysis; type: functional, organism-based; conditions: dose 4.0 µg/ml, time 12-16 hrs
[19] = test system: Escherichia coli; assay: Biofilm eradication activity against Escherichia coli DE17 assessed biofilm scavenging at 16 ug/ml measured after 12 to 16 hrs incubation by crystal violet staining based analysis; type: functional, organism-based; conditions: dose 16.0 µg/ml, time 12-16 hrs

Structure (SMILES) | MIC [1] [µg/mL] | MIC [2] [µg/mL] | MIC [3] [µg/mL] | MIC [4] [µg/mL] | further results
CN(C)CCCCCCCCOc1cc(=O)oc2ccccc12 | > 256 | > 256 | 32 (≈ 101 µM) | 64 (≈ 202 µM) | –
CCN1CCN(c2cc3c(cc2F)c(=O)c(C(=O)O)cn3C2CC2)CC1 [ENROFLOXACIN] | 0.031 (≈ 0.0863 µM) | 0.031 (≈ 0.0863 µM) | 0.062 (≈ 0.173 µM) | 32 (≈ 89 µM) | –
CCCCN(CCCC)CCCCCCCCCCCCOc1ccc2ccc(=O)oc2c1 | > 256 | > 256 | 1 (≈ 2.18 µM) | 4 (≈ 8.74 µM) | –
CCCCN(CCCC)CCCCOc1cc(=O)oc2ccccc12 | > 256 | > 256 | 256 (≈ 741 µM) | > 256 | –
CCN(CC)CCCCCCCCOc1cc(=O)oc2ccccc12 | > 256 | > 256 | 64 (≈ 185 µM) | 4 (≈ 11.6 µM) | –
CCN(CC)CCCCOc1cc(=O)oc2ccccc12 | > 256 | > 256 | > 256 | > 256 | –
CN(C)CCCCCCCCOc1ccc2ccc(=O)oc2c1 | > 256 | > 256 | > 128 | 64 (≈ 202 µM) | –
CCN(CC)CCCCCCCCOc1ccc2ccc(=O)oc2c1 | > 256 | > 256 | 64 (≈ 185 µM) | 64 (≈ 185 µM) | –
CN(C)CCCCCCCCCCCCOc1ccc2ccc(=O)oc2c1 | > 256 | > 256 | 16 (≈ 42.8 µM) | 4 (≈ 10.7 µM) | –
CN(C)CCCCCCCCCCCCOc1cc(=O)oc2ccccc12 | > 256 | > 256 | 4 (≈ 10.7 µM) | 4 (≈ 10.7 µM) | –
CCCN(CCC)CCCCCCCCOc1cc(=O)oc2ccccc12 | > 256 | > 256 | 16 (≈ 42.8 µM) | 32 (≈ 85.7 µM) | –
CN[C@H](CC(C)C)C(=O)N[C@H]1C(=O)N[C@@H](CC(N)=O)C(=O)N[C@H]2C(=O)N[C@H]3C(=O)N[C@H](C(=O)N[C@H](C(=O)O)c4cc(O)cc(O)c4-c4cc3ccc4O)[C@H](O)c3ccc(c(Cl)c3)Oc3cc2cc(c3O[C@@H]2O[C@H](CO)[C@@H](O)[C@H](O)[C@H]2O[C@H]2C[C@](C)(N)[C@H](O)[C@H](C)O2)Oc2ccc(cc2Cl)[C@H]1O [VANCOMYCIN] | > 256 | > 256 | – | – | MIC [5]: 0.5 µg/mL (≈ 0.345 µM); MIC [6]: 0.5 µg/mL (≈ 0.345 µM); MIC [7]: 2 µg/mL (≈ 1.38 µM)
CCCCN(CCCC)CCCCCCCCOc1ccc2ccc(=O)oc2c1 | > 256 | > 256 | 16 (≈ 39.8 µM) | 32 (≈ 79.7 µM) | –
O=c1cc(O)c2ccccc2o1 [4-HYDROXYCOUMARINS] | > 256 | > 256 | 256 (≈ 1580 µM) | > 256 | MIC [5]: > 256 µg/mL; MIC [8]: > 256 µg/mL; MIC [6]: > 256 µg/mL; MIC [7]: > 256 µg/mL
CCCN(CCC)CCCCCCCCCCCCOc1ccc2ccc(=O)oc2c1 | > 256 | > 256 | 8 (≈ 18.6 µM) | 4 (≈ 9.31 µM) | –
O=c1ccc2ccc(O)cc2o1 [UMBELLIFERONE] | > 256 | > 256 | > 256 | > 256 | Activity [9]: Non-toxic; MIC [5]: > 256 µg/mL; MIC [8]: > 256 µg/mL; MIC [6]: > 256 µg/mL; MIC [7]: > 256 µg/mL; Activity [10]: inactive; Activity [11]: inactive; Activity [12]: inactive
CCCCN(CCCC)CCCCCCCCOc1cc(=O)oc2ccccc12 | > 256 | > 256 | 16 (≈ 39.8 µM) | 32 (≈ 79.7 µM) | –
CCCCN(CCCC)CCCCOc1ccc2ccc(=O)oc2c1 | > 256 | > 256 | > 256 | > 256 | –
CCCN(CCC)CCCCCCCCOc1ccc2ccc(=O)oc2c1 | > 256 | > 256 | 32 (≈ 85.7 µM) | 32 (≈ 85.7 µM) | –
CCN(CC)CCCCCCCCCCCCOc1cc(=O)oc2ccccc12 | > 256 | > 256 | 2 (≈ 4.98 µM) | 2 (≈ 4.98 µM) | MIC [5]: 1 µg/mL (≈ 2.49 µM); MIC [8]: 4 µg/mL (≈ 9.96 µM); MIC [6]: 1 µg/mL (≈ 2.49 µM); MIC [7]: 4 µg/mL (≈ 9.96 µM); Activity [13]: Toxic; Activity [10]: Active; Activity [11]: Dose-dependent-effect; Activity [12]: Dose-dependent-effect; inhibition at 2 µg/mL [14]: 100%; inhibition at 4 µg/mL [15]: 100%; inhibition at 8 µg/mL [16]: 100%; inhibition at 16 µg/mL [17]: 100%; Activity [18]: Active; Activity [19]: Active
CN(C)CCCCOc1cc(=O)oc2ccccc12 | > 256 | > 256 | > 256 | > 256 | –
CN(C)CCCCOc1ccc2ccc(=O)oc2c1 | > 256 | > 256 | > 256 | > 256 | –
CCCN(CCC)CCCCCCCCCCCCOc1cc(=O)oc2ccccc12 | > 256 | > 256 | 4 (≈ 9.31 µM) | 2 (≈ 4.66 µM) | –
CCCCN(CCCC)CCCCCCCCCCCCOc1cc(=O)oc2ccccc12 | > 256 | > 256 | 4 (≈ 8.74 µM) | 4 (≈ 8.74 µM) | MIC [5]: 1 µg/mL (≈ 2.18 µM); MIC [8]: 8 µg/mL (≈ 17.5 µM); MIC [6]: 1 µg/mL (≈ 2.18 µM); MIC [7]: 4 µg/mL (≈ 8.74 µM)
CCCN(CCC)CCCCOc1ccc2ccc(=O)oc2c1 | > 256 | > 256 | > 256 | > 256 | –
CCN(CC)CCCCOc1ccc2ccc(=O)oc2c1 | > 256 | > 256 | > 256 | > 256 | –
CCCN(CCC)CCCCOc1cc(=O)oc2ccccc12 | > 256 | > 256 | > 256 | > 256 | –
